Reference: US10479780B2, “Aminopyrazole derivatives” (Chugai Seiyaku Kabushiki Kaisha, priority 2015, dated 2019)
Where two headings read alike, the source gives them in different places.

Assays:
Format in all cases: biochemical
human Yes1 enzyme = biological target: T1, human Yes1 enzyme (Homo sapiens, UniProt P07947); assay: Yes1 enzyme inhibitory activity (time-resolved fluorometry, biotinylated peptide phosphorylation); details: read-out: YES_IC50
T1 construct: made in house
Outline: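 Inhibition was expressed against a compound-free control to give IC50, using TR-FRET read-out (Eu-cryptate anti-pTyr antibody, streptavidin-XL665).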

human Src enzyme = biological target: T2, human Src enzyme (Homo sapiens, UniProt P12931); assay: Src enzyme inhibitory activity (time-resolved fluorometry, biotinylated peptide phosphorylation); details: read-out: SRC_IC50
T2 construct: purchased Carna Biosciences, Inc. 08-173
T2 sequence (P12931 whole entry): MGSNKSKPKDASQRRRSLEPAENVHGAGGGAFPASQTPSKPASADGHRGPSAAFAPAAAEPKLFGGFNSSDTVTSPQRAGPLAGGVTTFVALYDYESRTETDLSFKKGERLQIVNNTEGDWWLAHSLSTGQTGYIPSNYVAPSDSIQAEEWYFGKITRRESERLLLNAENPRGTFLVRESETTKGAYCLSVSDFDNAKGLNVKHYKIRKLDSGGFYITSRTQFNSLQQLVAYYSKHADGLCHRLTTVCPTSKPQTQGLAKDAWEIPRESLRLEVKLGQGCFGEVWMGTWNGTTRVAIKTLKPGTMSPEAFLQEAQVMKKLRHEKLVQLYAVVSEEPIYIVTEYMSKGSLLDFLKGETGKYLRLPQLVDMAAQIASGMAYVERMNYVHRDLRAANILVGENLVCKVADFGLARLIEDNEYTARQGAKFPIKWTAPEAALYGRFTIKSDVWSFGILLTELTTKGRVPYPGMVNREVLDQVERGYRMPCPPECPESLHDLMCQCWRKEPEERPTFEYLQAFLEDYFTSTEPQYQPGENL
Outline: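 Compounds were tested for blocking tyrosine phosphorylation of a biotinylated peptide substrate by recombinant human Src. Phosphorylated product was quantified by time-resolved fluorometry using europium cryptate and XL665 conjugates, and IC50 was calculated against the compound-free control.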

human Lck enzyme = biological target: T3, human Lck enzyme (Homo sapiens, UniProt P06239); assay: Lck enzyme inhibitory activity (time-resolved fluorometry, biotinylated peptide phosphorylation); details: read-out: LCK_IC50
T3 construct: purchased Carna Biosciences, Inc. 08-170
T3 sequence (P06239 whole entry): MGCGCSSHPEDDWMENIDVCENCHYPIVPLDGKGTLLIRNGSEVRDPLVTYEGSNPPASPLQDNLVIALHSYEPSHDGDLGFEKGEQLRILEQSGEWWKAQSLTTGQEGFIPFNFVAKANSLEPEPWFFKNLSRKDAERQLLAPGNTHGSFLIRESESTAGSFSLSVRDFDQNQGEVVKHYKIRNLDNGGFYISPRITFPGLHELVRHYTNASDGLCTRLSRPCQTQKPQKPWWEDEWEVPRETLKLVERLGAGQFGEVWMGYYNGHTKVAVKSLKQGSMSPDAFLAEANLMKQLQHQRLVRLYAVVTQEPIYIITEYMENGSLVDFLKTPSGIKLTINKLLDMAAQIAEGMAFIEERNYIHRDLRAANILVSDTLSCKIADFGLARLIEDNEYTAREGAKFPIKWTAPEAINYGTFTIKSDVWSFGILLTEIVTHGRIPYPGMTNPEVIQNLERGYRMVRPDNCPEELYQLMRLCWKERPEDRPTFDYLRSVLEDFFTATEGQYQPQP
Outline: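 Readout pairs a europium cryptate-labelled anti-phosphotyrosine antibody with XL665-streptavidin, measured by time-resolved fluorescence. IC50 derived from percent inhibition against untreated controls.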

[1] = biotinylated peptide phosphorylation

T1 sequence (P07947 whole entry): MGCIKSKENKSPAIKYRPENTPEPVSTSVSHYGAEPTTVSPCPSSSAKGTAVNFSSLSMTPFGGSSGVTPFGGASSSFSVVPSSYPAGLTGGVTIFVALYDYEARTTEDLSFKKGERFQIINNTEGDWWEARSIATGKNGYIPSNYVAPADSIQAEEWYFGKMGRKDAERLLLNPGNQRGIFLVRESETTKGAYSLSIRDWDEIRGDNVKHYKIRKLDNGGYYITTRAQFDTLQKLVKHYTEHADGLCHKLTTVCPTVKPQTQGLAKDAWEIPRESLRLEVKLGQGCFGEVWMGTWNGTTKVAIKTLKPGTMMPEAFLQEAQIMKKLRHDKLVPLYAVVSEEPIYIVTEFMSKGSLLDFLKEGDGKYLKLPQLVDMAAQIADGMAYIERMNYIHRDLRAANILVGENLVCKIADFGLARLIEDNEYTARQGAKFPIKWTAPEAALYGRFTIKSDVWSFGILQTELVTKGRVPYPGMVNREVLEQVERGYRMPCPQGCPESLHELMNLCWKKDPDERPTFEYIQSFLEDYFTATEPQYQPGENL

Row | SMILES | IC50 (human Yes1 enzyme; [1]) | IC50 (human Src enzyme; [1]) | IC50 (human Lck enzyme; [1]) | IC50 (human Yes1 enzyme) | IC50 (human Src enzyme) | IC50 (human Lck enzyme)
1 | Cc1cc(Oc2ccccc2F)ccc1-n1ncc(C(=O)c2cc3cc(F)c(NS(=O)(=O)NC4(C)COC4)cc3[nH]2)c1N [Example 4-5-008, [5-amino-1-[4-(2-fluorophenoxy)-2-methylphenyl]pyrazol-4-yl]-[5-fluoro-6-[(3-methyloxetan-3-yl)sulfamoylamino]-1H-indol-2-yl]methanone] | 0.55 nM | 31 nM | 8.2 nM | – | – | –
2 | CC(C)N1CCC(c2cc3cc(C(=O)c4cnn(-c5ccc(Oc6cccc(F)c6F)cc5F)c4N)[nH]c3cc2F)CC1 [Example 4-2-007, [5-amino-1-[4-(2,3-difluorophenoxy)-2-fluorophenyl]pyrazol-4-yl]-[6-fluoro-5-(1-propan-2-ylpiperidin-4-yl)-1H-indol-2-yl]methanone] | 0.91 nM | 45 nM | 3.6 nM | – | – | –
3 | Cc1cc(Oc2ccccc2F)ccc1-n1ncc(C(=O)c2cc3cc(OC4CCN(C(C)C)CC4)c(N4CCOCC4)cc3[nH]2)c1N [Example 5-1-190, [5-amino-1-[4-(2-fluorophenoxy)-2-methylphenyl]pyrazol-4-yl]-[6-morpholin-4-yl-5-(1-propan-2-ylpiperidin-4-yl)oxy-1H-indol-2-yl]methanone] | – | – | – | 0.41 nM | 1.8 nM | 1.3 nM
4 | Cc1cc(Oc2c(F)cccc2F)ncc1-n1ncc(C(=O)c2cc3cc(OCC(F)F)c(NS(=O)(=O)c4cccnc4)cc3[nH]2)c1N [Example 5-1-384, N-[2-[5-amino-1-[6-(2,6-difluorophenoxy)-4-methylpyridin-3-yl]pyrazole-4-carbonyl]-5-(2,2-difluoroethoxy)-1H-indol-6-yl]pyridine-3-sulfonamide] | – | – | – | 2.4 nM | 90 nM | 44 nM
5 | Cc1cc(Oc2c(F)cccc2F)ncc1-n1ncc(C(=O)c2cc3cc(OC4CCN(C(C)C)CC4)c(F)cc3[nH]2)c1N [Example 5-1-204, [5-amino-1-[6-(2,6-difluorophenoxy)-4-methylpyridin-3-yl]pyrazol-4-yl]-[6-fluoro-5-(1-propan-2-ylpiperidin-4-yl)oxy-1H-indol-2-yl] methanone] | – | – | – | 0.5 nM | 10 nM | 6.7 nM
6 | Cc1cc(Oc2cccc(F)c2F)ccc1-n1ncc(C(=O)c2cc3cc(C4CCN(C(C)C)CC4)c(F)cc3[nH]2)c1N [Example 4-2-002, [5-amino-1-[4-(2,3-difluorophenoxy)-2-methylphenyl]pyrazol-4-yl]-[6-fluoro-5-(1-propan-2-ylpiperidin-4-yl)-1H-indol-2-yl]methanone] | 0.89 nM | 3.5 nM | 3.7 nM | – | – | –
7 | Cc1cc2cc(C(=O)c3cnn(-c4cnc(Oc5c(F)cccc5F)cc4C)c3N)[nH]c2cc1N1C(=O)NC2(CC2)C1=O [Example 5-1-366, 6-[2-[5-amino-1-[6-(2,6-difluorophenoxy)-4-methylpyridin-3-yl]pyrazole-4-carbonyl]-5-methyl-1H-indol-6-yl]-4,6-diazaspiro[2.4] heptane-5,7-dione] | – | – | – | 3.7 nM | 39 nM | 9.9 nM
8 | Cc1cc(Oc2ccccc2F)ncc1-n1ncc(C(=O)c2cc3cc(OCC(F)F)c(C4CCN(S(=O)(=O)C5CC5)CC4)cc3[nH]2)c1N [Example 4-17-022, [5-amino-1-[6-(2-fluorophenoxy)-4-methylpyridin-3-yl]pyrazol-4-yl]-[6-(1-cyclopropylsulfonylpiperidin-4-yl)-5-(2,2-difluoroethoxy)-1H-indol-2-yl]methanone] | 1.3 nM | 14 nM | 8 nM | – | – | –
9 | CC(=O)N1CCC(c2cc3[nH]c(C(=O)c4cnn(-c5ccc(Oc6ccccc6F)cc5C)c4N)cc3cc2C)CC1 [Example 5-1-132, 1-[4-[2-[5-amino-1-[4-(2-fluorophenoxy)-2-methylphenyl]pyrazole-4-carbonyl]-5-methyl-1H-indol-6-yl]piperidin-1-yl]ethanone] | – | – | – | 0.71 nM | 6.6 nM | 3.3 nM
10 | Cc1cc(Oc2ccccc2F)cc(F)c1-n1ncc(C(=O)c2cc3cc(OCC(F)F)c(N4CCCS4(=O)=O)cc3[nH]2)c1N [Example 4-25-010, [5-amino-1-[2-fluoro-4-(2-fluorophenoxy)-6-methylphenyl]pyrazol-4-yl]-[5-(2,2-difluoroethoxy)-6-(1,1-dioxo-1,2-thiazolidin-2-yl)-1H-indol-2-yl]methanone] | 1.7 nM | 16 nM | 7.4 nM | – | – | –
11 | Cc1cc2cc(C(=O)c3cnn(-c4c(C)cc(Oc5cc(F)ccc5F)cc4F)c3N)[nH]c2cc1NS(C)(=O)=O [Example 4-2-057, N-[2-[5-amino-1-[4-(2,5-difluorophenoxy)-2-fluoro-6-methylphenyl]pyrazole-4-carbonyl]-5-methyl-1H-indol-6-yl]methanesulfonamide] | 4.3 nM | 140 nM | 27 nM | – | – | –
12 | Cc1cc(-n2ncc(C(=O)c3cc4cc(F)c(NS(N)(=O)=O)cc4[nH]3)c2N)ccc1Oc1ccccc1F [Example 4-20-003, 2-[5-amino-1-[4-(2-fluorophenoxy)-3-methylphenyl]pyrazole-4-carbonyl]-5-fluoro-6-(sulfamoylamino)-1H-indole] | 1.4 nM | 15 nM | 2.1 nM | – | – | –
13 | Cc1cc2cc(C(=O)c3cnn(-c4cnc(Oc5ccccc5F)cc4C)c3N)[nH]c2cc1NS(=O)(=O)c1cc(Cl)cc(C#N)c1 [Example 5-1-498, N-[2-[5-amino-1-[6-(2-fluorophenoxy)-4-methylpyridin-3-yl]pyrazole-4-carbonyl]-5-methyl-1H-indol-6-yl]-3-chloro-5-cyanobenzenesulfonamide] | 8.7 nM | 1600 nM | 420 nM | – | – | –
14 | Cc1cc2cc(C(=O)c3cnn(-c4cnc(Oc5ccccc5F)cc4C)c3N)[nH]c2cc1NS(=O)(=O)CC(=O)NC(C)C [Example 5-1-058, 2-[[2-[5-amino-1-[6-(2-fluorophenoxy)-4-methylpyridin-3-yl]pyrazole-4-carbonyl]-5-methyl-1H-indol-6-yl]sulfamoyl]-N-propan-2-ylacetamide] | – | – | – | 1.6 nM | 58 nM | 25 nM
15 | Cc1cc2cc(C(=O)c3cnn(-c4cnc(Oc5ccccc5F)cc4C)c3N)[nH]c2cc1NS(=O)(=O)c1cc(F)cc(C#N)c1 [Example 5-1-497, N-[2-[5-amino-1-[6-(2-fluorophenoxy)-4-methylpyridin-3-yl]pyrazole-4-carbonyl]-5-methyl-1H-indol-6-yl]-3-cyano-5-fluorobenzenesulfonamide] | 4.7 nM | 660 nM | 170 nM | – | – | –
16 | Cc1cc(Oc2ccccc2F)ncc1-n1ncc(C(=O)c2cc3cc(F)c(NS(=O)(=O)C4CC4)cc3[nH]2)c1N [Example 4-2-043, N-[2-[5-amino-1-[6-(2-fluorophenoxy)-4-methylpyridin-3-yl]pyrazole-4-carbonyl]-5-fluoro-1H-indol-6-yl]cyclopropanesulfonamide] | 1.4 nM | 87 nM | 28 nM | – | – | –
17 | Cc1cc(Oc2ccccc2F)ncc1-n1ncc(C(=O)c2cc3cc(F)c(NS(=O)(=O)CC(=O)NC(C)C)cc3[nH]2)c1N [Example 5-1-056, 2-[[2-[5-amino-1-[6-(2-fluorophenoxy)-4-methylpyridin-3-yl]pyrazole-4-carbonyl]-5-fluoro-1H-indol-6-yl]sulfamoyl]-N-propan-2-ylacetamide] | – | – | – | 1.7 nM | 76 nM | 24 nM
18 | Cc1cc(Oc2ccccc2F)ncc1-n1ncc(C(=O)c2cc3cc(OC(F)F)c(N4CCOC4=O)cc3[nH]2)c1N [Example 4-25-018, 3-[2-[5-amino-1-[6-(2-fluorophenoxy)-4-methylpyridin-3-yl]pyrazole-4-carbonyl]-5-(difluoromethoxy)-1H-indol-6-yl]-1,3-oxazolidin-2-one] | 0.72 nM | 20 nM | 1.7 nM | – | – | –
19 | Cc1cc(Oc2ccccc2F)ncc1-n1ncc(C(=O)c2cc3cc(F)c(N4CCCS4(=O)=O)cc3[nH]2)c1N [Example 4-9-001, {5-amino-1-[6-(2-fluorophenoxy)-4-methylpyridin-3-yl]pyrazol-4-yl}-[6-(1,1-dioxo-1,2-thiazolidin-2-yl)-5-fluoro-1H-indol-2-yl]methanone] | 0.46 nM | 13 nM | 2.5 nM | – | – | –
20 | Cc1cc2cc(C(=O)c3cnn(-c4cnc(Oc5ccccc5F)cc4C)c3N)[nH]c2cc1NS(=O)(=O)c1cc(F)ccn1 [Example 5-1-505, N-[2-[5-amino-1-[6-(2-fluorophenoxy)-4-methylpyridin-3-yl]pyrazole-4-carbonyl]-5-methyl-1H-indol-6-yl]-4-fluoropyridine-2-sulfonamide] | 2.5 nM | 470 nM | 68 nM | – | – | –
21 | Cc1cc2cc(C(=O)c3cnn(-c4ccc(Oc5ccccc5F)cc4C)c3N)[nH]c2cc1N1CCC(N2CCOCC2)CC1 [Example 5-1-077, [5-amino-1-[4-(2-fluorophenoxy)-2-methylphenyl]pyrazol-4-yl]-[5-methyl-6-(4-morpholin-4-ylpiperidin-1-yl)-1H-indol-2-yl] methanone] | – | – | – | 1 nM | 42 nM | 7.1 nM
22 | Cc1cncc(S(=O)(=O)Nc2cc3[nH]c(C(=O)c4cnn(-c5cnc(Oc6ccccc6F)cc5C)c4N)cc3cc2C)c1 [Example 5-1-488, N-[2-[5-amino-1-[6-(2-fluorophenoxy)-4-methylpyridin-3-yl]pyrazole-4-carbonyl]-5-methyl-1H-indol-6-yl]-5-methylpyridine-3-sulfonamide] | 4.2 nM | 520 nM | 120 nM | – | – | –
